One data set concerns vaccinia virus. In words: microbe, parasite or virus in culture. Type of data set: cell-based. As to conditions: for IC50: Orthopoxvirus vaccinia, Vero, read-out: ID50 (inhibitory dose 50; 50% reduction in virus replication), vaccinia virus in Vero cells, called MIC50; for TI (therapeutic index, MTC/ID50) / Virus Rating (VR): Vero cells; for TI (therapeutic index, MTC/ID50): TI>50 indicates a useful compound; for Virus Rating (VR): VR >=1.0 significant, 0.5-0.9 marginal, <0.5 inactive, repeat lines are repeat tests.

Data set [1] is described as follows: Cytotoxicity of test compound to Vero host cells (minimum toxic concentration). The settings on record: monkey, MTC (minimum toxic concentration), footnote: lowest concentration giving 50% reduction in percent survival of viable host cells.

SMILES strings stand for the structures. Where “and” joins values, the source holds several entries; their conditions need not be identical. Identical values can stand only once. Bounds are passed on as bounds.

`Cc1ccc(COn2cnc3c(ncn3[C@@H]3O[C@H](CO)[C@@H](O)[C@H]3O)c2=N)c(C)c1.[O-][Cl+3]([O-])([O-])O` [Compound 2cc, 1-(2,4-Dimethylbenzyloxy)adenosine, perchloric acid salt]: in the data set on vaccinia virus, the IC50 was found to be 0.08 µg/mL; the “TI (therapeutic index, MTC/ID50)” value is 4110 and 3890; the “Virus Rating (VR)” value is 2.9. This compound also displayed an MCC in data set [1] of 320 µg/mL.

In the case of `N=c1c2ncn([C@@H]3O[C@H](CO)[C@@H](O)[C@H]3O)c2ncn1OCc1ccccc1.[O-][Cl+3]([O-])([O-])O` [Compound 2dd, 1-Benzyloxyadenosine, perchloric acid salt], in the data set with vaccinia virus, the IC50 was 1.77 µg/mL; the “TI (therapeutic index, MTC/ID50)” value is on record as 180; the “Virus Rating (VR)” value was > 2.0. In data set [1], this compound displayed an MCC of 320 µg/mL.

`COc1cccc(COn2cnc3c(ncn3[C@@H]3O[C@H](CO)[C@@H](O)[C@H]3O)c2=N)c1.[O-][Cl+3]([O-])([O-])O` [Compound 2e, 1-(3-Methoxybenzyloxy)adenosine, perchloric acid salt]: in the data set with vaccinia virus, the IC50 came out at 0.2 µg/mL; the “TI (therapeutic index, MTC/ID50)” value was 1609 and 1075. Besides, in data set [1], the MCC was > 320 µg/mL.

Regarding `N=c1c2ncn([C@@H]3O[C@H](CO)[C@@H](O)[C@H]3O)c2ncn1OCc1cc(F)cc(F)c1.[O-][Cl+3]([O-])([O-])O` [Compound 2ff, 1-(3,5-Difluorobenzyloxy)adenosine, perchloric acid salt], in the data set on vaccinia virus, the IC50 was 1.55 µg/mL; the “TI (therapeutic index, MTC/ID50)” value was 205 and 175; the “Virus Rating (VR)” value is reported as > 2.0. In addition, the MCC in data set [1] is > 320 µg/mL.

Take `N=c1c2ncn([C@@H]3O[C@H](CO)[C@@H](O)[C@H]3O)c2ncn1OCc1ccccc1F.[O-][Cl+3]([O-])([O-])O` [Compound 2g, 1-(2-Fluorobenzyloxy)adenosine, perchloric acid salt]: in the data set on vaccinia virus, the IC50 is 4.97 µg/mL; the “TI (therapeutic index, MTC/ID50)” value was 64 and 34. For the same compound, the MCC in data set [1] was > 320 µg/mL.

As to `N=c1c2ncn([C@@H]3O[C@H](CO)[C@@H](O)[C@H]3O)c2ncn1OCc1cc(F)ccc1F.[O-][Cl+3]([O-])([O-])O` [Compound 2gg, 1-(2,5-Difluorobenzyloxy)adenosine, perchloric acid salt], in the data set with vaccinia virus, the IC50 stood at 1.77 µg/mL; the “TI (therapeutic index, MTC/ID50)” value was 180 and 115. Moreover, the MCC in data set [1] was > 320 µg/mL.

With `N=c1c2ncn([C@@H]3O[C@H](CO)[C@@H](O)[C@H]3O)c2ncn1OCc1cccc(F)c1.[O-][Cl+3]([O-])([O-])O` [Compound 2h, 1-(3-Fluorobenzyloxy)adenosine, perchloric acid salt], in the data set on vaccinia virus, the IC50 came to 0.98 µg/mL; the “TI (therapeutic index, MTC/ID50)” value was 325 and 285. In addition, the MCC in data set [1] was > 320 µg/mL.

Take `N=c1c2ncn([C@@H]3O[C@H](CO)[C@@H](O)[C@H]3O)c2ncn1OCc1ccc(F)cc1.[O-][Cl+3]([O-])([O-])O` [Compound 2i, 1-(4-Fluorobenzyloxy)adenosine, perchloric acid salt]: in the data set on vaccinia virus, the IC50 worked out at 2.41 µg/mL; the “TI (therapeutic index, MTC/ID50)” value was 133 and 160. Further, the MCC in data set [1] is > 320 µg/mL.

Turning to `N=c1c2ncn([C@@H]3O[C@H](CO)[C@@H](O)[C@H]3O)c2ncn1OCc1ccc(F)cc1F.[O-][Cl+3]([O-])([O-])O` [Compound 2j, 1-(2,4-Difluorobenzyloxy)adenosine, perchloric acid salt], in the data set with vaccinia virus, the IC50 stood at 0.31 µg/mL; the “TI (therapeutic index, MTC/ID50)” value was determined as 1029; the “Virus Rating (VR)” value was > 2.4. Moreover, the MCC in data set [1] was > 320 µg/mL.

For the compound `N=c1c2ncn([C@@H]3O[C@H](CO)[C@@H](O)[C@H]3O)c2ncn1OCc1ccc(F)c(F)c1.[O-][Cl+3]([O-])([O-])O` [Compound 2k, 1-(3,4-Difluorobenzyloxy)adenosine, perchloric acid salt], in the data set with vaccinia virus, the IC50 worked out at 0.48 µg/mL; the “TI (therapeutic index, MTC/ID50)” value was 671 and 434; the “Virus Rating (VR)” value was > 2.3. In data set [1], the MCC is > 320 µg/mL.

For `N=c1c2ncn([C@@H]3O[C@H](CO)[C@@H](O)[C@H]3O)c2ncn1OCc1ccccc1C(F)(F)F.[O-][Cl+3]([O-])([O-])O` [Compound 2l, 1-(2-Trifluoromethylbenzyloxy)adenosine, perchloric acid salt], in the data set on vaccinia virus, the IC50 came to 0.82 µg/mL; the “TI (therapeutic index, MTC/ID50)” value is recorded as 391; the “Virus Rating (VR)” value is > 2.2. Besides, in data set [1], the MCC was > 320 µg/mL.

For `N=c1c2ncn([C@@H]3O[C@H](CO)[C@@H](O)[C@H]3O)c2ncn1OCc1cc(C(F)(F)F)cc(C(F)(F)F)c1.[O-][Cl+3]([O-])([O-])O` [Compound 2m, 1-[3,5-Bis(trifluoromethyl)benzyloxy]adenosine, perchloric acid salt], in the data set on vaccinia virus, the IC50 was 1.03 µg/mL; the “TI (therapeutic index, MTC/ID50)” value is 311 and 314. Further, the MCC in data set [1] is > 320 µg/mL.

Take `N=c1c2ncn([C@@H]3O[C@H](CO)[C@@H](O)[C@H]3O)c2ncn1OCc1ccc(C(F)(F)F)cc1C(F)(F)F.[O-][Cl+3]([O-])([O-])O` [Compound 2n, 1-[2,4-Bis(trifluoromethyl)benzyloxy]adenosine, perchloric acid salt]: in the data set with vaccinia virus, the IC50 is 1.45 µg/mL; the “TI (therapeutic index, MTC/ID50)” value is 221 and 181. Moreover, the MCC in data set [1] was > 320 µg/mL.

On to `N=c1c2ncn([C@@H]3O[C@H](CO)[C@@H](O)[C@H]3O)c2ncn1OCc1ccccc1Cl.[O-][Cl+3]([O-])([O-])O` [Compound 2o, 1-(2-Chlorobenzyloxy)adenosine, perchloric acid salt], for which, in the data set on vaccinia virus, the IC50 was found to be 1.01 µg/mL; the “TI (therapeutic index, MTC/ID50)” value is 318 and 251. The MCC in data set [1] is > 320 µg/mL.

As for `N=c1c2ncn([C@@H]3O[C@H](CO)[C@@H](O)[C@H]3O)c2ncn1OCc1cccc(Cl)c1.[O-][Cl+3]([O-])([O-])O` [Compound 2p, 1-(3-Chlorobenzyloxy)adenosine, perchloric acid salt], in the data set on vaccinia virus, the IC50 is 1.08 µg/mL; the “TI (therapeutic index, MTC/ID50)” value was 295 and 193. The MCC in data set [1] is > 320 µg/mL.

On to `N=c1c2ncn([C@@H]3O[C@H](CO)[C@@H](O)[C@H]3O)c2ncn1OCc1ccccc1[N+](=O)[O-].[O-][Cl+3]([O-])([O-])O` [Compound 2q, 1-(2-Nitrobenzyloxy)adenosine, perchloric acid salt], for which, in the data set with vaccinia virus, the IC50 came out at 1.03 µg/mL; the “TI (therapeutic index, MTC/ID50)” value is 310 and 181. Moreover, the MCC in data set [1] was > 320 µg/mL.

Turning to `N=c1c2ncn([C@@H]3O[C@H](CO)[C@@H](O)[C@H]3O)c2ncn1OCc1cccc([N+](=O)[O-])c1.[O-][Cl+3]([O-])([O-])O` [Compound 2r, 1-(3-Nitrobenzyloxy)adenosine, perchloric acid salt], in the data set on vaccinia virus, the IC50 was 10 µg/mL; the “TI (therapeutic index, MTC/ID50)” value was 32 and 30. Moreover, the MCC in data set [1] was > 320 µg/mL.

Turning to `N=c1c2ncn([C@@H]3O[C@H](CO)[C@@H](O)[C@H]3O)c2ncn1OCc1ccc([N+](=O)[O-])cc1.[O-][Cl+3]([O-])([O-])O` [Compound 2s, 1-(4-Nitrobenzyloxy)adenosine, perchloric acid salt], in the data set with vaccinia virus, the IC50 worked out at 2.34 µg/mL; the “TI (therapeutic index, MTC/ID50)” value is 137 and 89; the “Virus Rating (VR)” value is listed as > 1.7. The MCC in data set [1] was > 320 µg/mL.

Turning to `COc1ccc([N+](=O)[O-])cc1COn1cnc2c(ncn2[C@@H]2O[C@H](CO)[C@@H](O)[C@H]2O)c1=N.[O-][Cl+3]([O-])([O-])O` [Compound 2t, 1-(2-Methoxy-5-nitrobenzyloxy)adenosine, perchloric acid salt], in the data set on vaccinia virus, the IC50 was 2.01 µg/mL; the “TI (therapeutic index, MTC/ID50)” value is 160 and 87. Moreover, in data set [1], the MCC is > 320 µg/mL.

Regarding `COC(=O)c1cccc(COn2cnc3c(ncn3[C@@H]3O[C@H](CO)[C@@H](O)[C@H]3O)c2=N)c1.[O-][Cl+3]([O-])([O-])O` [Compound 2u, 1-(3-Methoxycarbonylbenzyloxy)adenosine, perchloric acid salt], in the data set on vaccinia virus, the IC50 came to 1.55 µg/mL; the “TI (therapeutic index, MTC/ID50)” value is 207 and 139. In addition, the MCC in data set [1] is > 320 µg/mL.

As to `N#Cc1ccc(COn2cnc3c(ncn3[C@@H]3O[C@H](CO)[C@@H](O)[C@H]3O)c2=N)cc1.[O-][Cl+3]([O-])([O-])O` [Compound 2v, 1-(4-Cyanobenzyloxy)adenosine, perchloric acid salt], in the data set on vaccinia virus, the IC50 worked out at 3.2 µg/mL; the “TI (therapeutic index, MTC/ID50)” value is 100 and 134. The MCC in data set [1] is > 320 µg/mL.

`N#Cc1cccc(COn2cnc3c(ncn3[C@@H]3O[C@H](CO)[C@@H](O)[C@H]3O)c2=N)c1.[O-][Cl+3]([O-])([O-])O` [Compound 2x, 1-(3-Cyanobenzyloxy)adenosine, perchloric acid salt]: in the data set on vaccinia virus, the “TI (therapeutic index, MTC/ID50)” value was 182 and 134. The MCC in data set [1] is > 320 µg/mL.

In the case of `COc1ccccc1COn1cnc2c(ncn2[C@@H]2O[C@H](CO)[C@@H](O)[C@H]2O)c1=N.[O-][Cl+3]([O-])([O-])O` [Compound 2y, 1-(2-methoxybenzyloxy)adenosine, perchloric acid salt], in the data set with vaccinia virus, the IC50 was 0.17 µg/mL; the “TI (therapeutic index, MTC/ID50)” value is 1935 and > 3020. Besides, in data set [1], the MCC was 320 µg/mL.

As for `Cc1ccc(COn2cnc3c(ncn3[C@@H]3O[C@H](CO)[C@@H](O)[C@H]3O)c2=N)cc1C.[O-][Cl+3]([O-])([O-])O` [Compound 2z, 1-(3,4-Dimethylbenzyloxy)adenosine, perchloric acid salt], in the data set with vaccinia virus, the IC50 worked out at 0.32 µg/mL; the “TI (therapeutic index, MTC/ID50)” value is > 1000 and > 1760. The compound further registered an MCC in data set [1] of 320 µg/mL.

(Values after patent US5102873A (priority 1989, dated 1992).)
